Data: patent US10202420B2, “Methods and compositions for treatment of cartilage and disc tissue pathologies” (THE ROYAL INSTITUTION FOR ADVANCEMENT OF LEARNING/MCGILL …, priority 2013, dated 2019)

What was measured:
Format in all cases: cell-based
[1] = test system: bovine discs with trypsin-induced degeneration; assay: Proteoglycan (GAG, DMMB) concentration in bovine disc organ culture with trypsin-induced degeneration; conditions: degenerated bovine discs, 2 weeks post Link N 1-8 treatment
From the text: (§1) The largest first 3-4 caudal discs were isolated from the tails of 24- to 30-month-old steers, as described previously (21,22). Briefly, the tails were dissected free of skin, muscles and ligaments, and pedicles for each segment were removed. The bone and the adjacent calcified part of the cartilaginous endplate were removed, so that the surface of the disc was soft and flexible without detectable calcified tissue. After the discs were rinsed in PBS supplemented with 1,000 U/mL penicillin, 1,000 μg/mL streptomycin and 0.25 μg/mL fungizone (GIBCO, Burlington, Canada), they were preconditioned for 3 days in sterile 80 mL specimen containers (STARPLEX Scientific, Etobicoke, Canada) containing 50 mL culture medium. (DMEM with 2 mM Glutamax and 25 mM Hepes, supplemented with 5% FBS, 100 U/mL penicillin, 100 μg/mL streptomycin, 50 μg/mL L-ascorbate). […] The number of MSCs used was based on a study by Liebscher et al (23), which measured the cell density of healthy human discs. […]
(§2) The remaining nucleus pulposus (NP) tissue was collected and the wet weight was recorded (21). […]
Sulfated glycosaminoglycans (GAGs) were quantified in tissue extracts by a modified dimethyl methylene blue (DMMB) dye-binding assay (25,26). […]

type II collagen = assay: Type II collagen by Western blot, bovine disc organ culture; conditions: degenerated bovine discs, 2 weeks post Link N 1-8 treatment
From the text: as §1, with “L-ascorbate). Degeneration was induced by a single injection of 100 μg trypsin (Sigma-Aldrich) dissolved in 75 μL PBS into the center of the disc using a 28 G½ needle (21) The needle was placed on top of the disc to measure the distance needed to reach the center and was then inserted to the same depth.” for “L-ascorbate).”
as §2

[2] = test system: bovine annulus fibrosus (AF) cells; assay: Proteoglycan synthesis by 35SO4 incorporation, cells in alginate beads; conditions: 48 h
Description: (§3) Human and bovine IVDs were separated from the adjoining vertebral body and divided into NP and AF for bovine IVDs and NP and inner annulus fibrosus (iAF) for human IVDs. Tissue from the human outer annulus fibrosus (oAF) was not used for cell isolation in this study. Cells were enzymatically isolated from each region as previously described (63). Briefly, NP and AF tissues were dissected into approximately 2-mm thick pieces, washed twice in PBS containing 50 μg/mL gentamicin, […] and 0.25 μg/mL fungizone, then digested with 0.2% pronase for 1 h, followed by collagenase type IA at 0.01% for NP and 0.04% for AF tissue for 4 h in serum free DMEM.
(§4) To compare the metabolic response to the various Link N peptides, freshly isolated human and bovine cells from NP and AF regions were embedded in 1.2% alginate beads, as previously described (65). Cells in alginate beads were cultured at 37° C., 5% CO2 in DMEM, containing 4.5 g/L glucose and supplemented with 10% FCS, 25 mmol/L HEPES, 50 μg/mL gentamicin sulphate, 0.25 μg/mL fungizone, 50 μg/mL L-ascorbate, and 2 mmol/L GlutaMAX. The beads were stabilized for 7 days and cell viability was assessed by Live/Dead® assay prior to further treatment. 5 beads per well were then cultured in 48 well plates in the presence of equimolar concentrations of either Link N (1 μg/mL), R-Link N (1 μg/mL), S-Link N (1 μg/mL), Link N 1-8 (0.5 μg/mL) or Link N 9-16 (0.5 μg/mL) in 0.5 mL DMEM. 25 μCi/mL ^35SO4 was added to the medium to allow assessment of proteoglycan synthesis (66). In addition, beads were exposed for 48 h to IL-1β (10 ng/mL) alone, or to a combination of peptides and IL-1β (51). At the end of the culture period, medium was collected and dialyzed exhaustively against miliQ water at […] (Spectra/Por® 3), followed by cold chase with 1M MgSO4 for 2 h to remove any remaining unincorporated ^35SO4. The ^35SO4 incorporation was measured using a beta scintillation counter (Beckman Coulter LS6500, Beckman Coulter, Mississauga, Canada).

[3] = test system: bovine nucleus pulposus (NP) cells; assay: as above; conditions: 48 h
Description: as §3, §4

aggrecan core protein = assay: Aggrecan core protein by Western blot, bovine disc organ culture; conditions: degenerated bovine discs, 2 weeks post Link N 1-8 treatment
From the text: as §1, with “L-ascorbate). Degeneration was induced by a single injection of 100 μg trypsin (Sigma-Aldrich) dissolved in 75 μL PBS into the center of the disc using a 28 G½ needle (21) The needle was placed on top of the disc to measure the distance needed to reach the center and was then inserted to the same depth.” for “L-ascorbate).”
as §2

[4] = test system: human inner annulus fibrosus (iAF) cells; assay: Proteoglycan synthesis by 35SO4 incorporation, cells in alginate beads; conditions: human AF (iAF) cells, 48 h
Description: (§5) Human thoracolumbar spines were retrieved through the Transplant Quebec organ donation program. Discs were obtained from 7 donors, 1 male and 6 female, with a mean age of 29.6 years and an age range of 16 to 47 years (Table 1). Donors having had recent chemotherapy, radiation therapies to the spine, or significant long-standing paralysis were excluded from the study. Spine retrieval was performed within 8 h of death. Discs with calcification and loss of disc height were not included in the study. All procedures were approved by the institutional review board of the Montreal General Hospital.
as §3, §4

[5] = test system: human nucleus pulposus (NP) cells; assay: as above; conditions: 48 h
Description: as §5, §3, §4

[6] = 16-mer peptides 1 μg/mL, 8-mer peptides 0.5 μg/mL, vs medium alone
[7] = IL-1β 10 ng/mL, vs IL-1-containing medium

In the case of “DHLSDNYT [Link N 1-8, Link-N first 8 peptide residues]”, the “proteoglycan synthesis (proteoglycan concentration in the discs)” value [1] is reported as “statistically significant increase”, the “type II collagen expression” value (type II collagen) is reported as “statistically significant increase” and the “proteoglycan synthesis (35SO4 incorporation)” value [2, 6] is reported as “statistically significant increase”. For the same sequence, the “proteoglycan synthesis (35SO4 incorporation) in the presence of IL-1β” value (“proteoglycan synthesis … of IL-1β” for short) [2, 7] was “significantly induced proteoglycan production to the same extent as native Link N”, the “proteoglycan synthesis (35SO4 incorporation)” value [3, 6] was “statistically significant increase” and the “proteoglycan synthesis … of IL-1β” value [3, 7] was “significantly induced proteoglycan production to the same extent as native Link N”. The aggrecan expression (aggrecan core protein) was “statistically significant increase”, the “proteoglycan synthesis (35SO4 incorporation)” value [4, 6] was “significant increase” and the “proteoglycan synthesis … of IL-1β” value [4, 7] was “significantly increased response”. The “proteoglycan synthesis (35SO4 incorporation)” value [5, 6] was “significant increase” and the “proteoglycan synthesis … of IL-1β” value [5, 7] was “significantly increased response”.
